Values quoted from earlier work as cited in patent US20070020305A1, “Attractant for monitoring or controlling female stored product moths” (Board of Regents for Oklahoma State University, priority 2004, published 2007).

System: stored product moths
Conditions: for Attraction of females and males: Indianmeal moth and Mediterranean flour moth, Toth et al. 2002

SMILES	Attraction of females and males	Attractiveness to stored product moths, in words (background statement)
CC(C)CCO [isoamyl alcohol]	would attract females and males	
CCCCC/C=C\C=C\C(=O)OCC [ethyl-decdienoate]		not attractive
CC(=O)O [acetic acid]	would attract females and males	
